# Assay results taken from patent US20170000749A1, “Methods for Treating Cognitive Disorders Using Inhibitors of Histone Deacetylase” (Forum Pharmaceuticals, Inc., priority 2008, published 2017).
# Where two headings read alike, the source gives them in different places.
# Legend:
# [1] = target: one or more of HDAC-1, HDAC-2, HDAC-3, HDAC-4, HDAC-5, HDAC-6, HDAC-7, HDAC-8, HDAC-9, HDAC-10 and HDAC-11; test: Inhibition of Histone Deacetylase Enzymatic Activity (Boc-Lys(Ac)-AMC substrate, Fluor-de-Lys developer); format: biochemical; settings: read-out: HDAC Inhibition (IC50 μM) HDAC Enzyme
# Experimental: The following protocol is used to assay the compounds of the disclosure.
# The mixture is pre-incubated for 5 minutes at room temperature. The reaction is started by bringing the temperature to 37° C. and adding 16 μl substrate. Total reaction volume is 50 μl.
# In the Tables 8, 9 and 10, A≦0.05 μM; 0.05 μM<B≦0.1 μM; 0.1 μM<C≦1 μM; and 1 μM<D≦10 μM.
# [2] = test system: HDAC activity in primary mouse cortical cultures; test: Whole-Cell Histone Deacetylase (HDAC) Inhibition Assay in Primary Mouse Cortical Cultures; format: cell-based; settings: whole-cell (WC), mouse cortical neurons, read-out: HDAC Inhibition (IC50 μM) WC mouse cortical neurons
# Procedure, shortened: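 Primary neocortical neurons from E17 Balb/C mouse embryos were plated at 50000 cells/well and treated at DIV9 with ten-point DMSO dilutions for 16-18 h at 37° C, in triplicate. BOC-Lys(Ac)-AMC substrate was then added for 1 h. Fluor de Lys developer containing 1 uM TSA produced a fluorophore, which was read.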
SMILES,IC50 ([1]; Table 10) [µM],IC50 ([2]; Table 10) [µM],IC50 ([1]; Table 9) [µM],IC50 ([2]; Table 9) [µM],other results
"O=C(CCn1cc(CN2C(=O)c3ccccc3Oc3ccccc32)nn1)NO [N-hydroxy-3-(4-((11-oxodibenzo[b,f][1,4]oxazepin-10(11H)-yl)methyl)-1H-1,2,3-triazol-1-yl)propanamide]",0.1 to 1,1 to 5,,,
"O=C(CCc1ccc(CN2C(=O)c3ccccc3Oc3ccccc32)cc1)NO [N-hydroxy-3-(4-((11-oxodibenzo[b,f][1,4]oxazepin-10(11H)-yl)methyl)phenyl)propanamide]",0.1 to 1,1 to 5,,,
"O=C(NO)c1ccc(C#CCN2C(=O)c3ccccc3Oc3ccccc32)cc1 [N-hydroxy-4-(3-(11-oxodibenzo[b,f][1,4]oxazepin-10(11H)-yl)prop-1-ynyl)benzamide]",< 0.05,1 to 5,,,
"O=C(NO)c1ccc(CCCN2C(=O)c3ccccc3Oc3ccccc32)cc1 [N-hydroxy-4-(3-(11-oxodibenzo[b,f][1,4]oxazepin-10(11H)-yl)propyl)benzamide]",0.05 to 0.1,< 1,,,
"COc1cccc(N2CC3CC2CN3c2ccc(C(=O)NO)cc2)c1 (stereo not shown) [N-hydroxy-4-(5-(3-methoxyphenyl)-2,5-diazabicyclo[2.2.1]heptan-2-yl)benzamide]",,,0.1 to 1,1 to 5,
"Cc1cccc(N2CC3CC2CN3c2ccc(C(=O)NO)cc2)c1 (stereo not shown) [N-hydroxy-4-(5-m-tolyl-2,5-diazabicyclo[2.2.1]heptan-2-yl)benzamide]",,,0.1 to 1,1 to 5,
"CN1c2ccccc2Oc2ccccc2C1c1ccc(C(=O)NO)cc1 (stereo not shown) [N-hydroxy-4-(10-methyl-10,11-dihydrodibenzo[b,f][1,4]oxazepin-11-yl)benzamide]",,,,,IC50 ([1]; Table 8): 0.1 to 1 µM; IC50 ([2]; Table 8): 5 to 15 µM
"O=C(NO)c1ccc(N2C(=O)c3ccccc3Oc3ccccc32)cc1 [N-hydroxy-4-(11-oxodibenzo[b,f][1,4]oxazepin-10(11H)-yl)benzamide]",0.1 to 1,> 15,,,
"O=C(NO)c1ccc(N2C[C@H]3C[C@@H]2CN3c2cc(C(F)(F)F)ccn2)cc1 [N-hydroxy-4-((1R,4R)-5-(4-(trifluoromethyl)pyridin-2-yl)-2,5-diazabicyclo[2.2.1]heptan-2-yl)benzamide]",,,1 to 10,5 to 15,
"Cc1cccc(N2C[C@H]3C[C@@H]2CN3c2ccc(C(=O)NO)cc2)c1 [N-hydroxy-4-((1R,4R)-5-m-tolyl-2,5-diazabicyclo[2.2.1]heptan-2-yl)benzamide]",,,0.1 to 1,1 to 5,
"O=C(NO)c1ccc(N2C[C@@H]3C[C@H]2CN3c2cccc(C(F)(F)F)c2)cc1 [N-hydroxy-4-((1S,4S)-5-(3-(trifluoromethyl)phenyl)-2,5-diazabicyclo[2.2.1]heptan-2-yl)benzamide]",,,0.1 to 1,1 to 5,
"O=C(NO)c1ccc(N2C[C@@H]3C[C@H]2CN3c2cc(C(F)(F)F)ccn2)cc1 [N-hydroxy-4-((1S,4S)-5-(4-(trifluoromethyl)pyridin-2-yl)-2,5-diazabicyclo[2.2.1]heptan-2-yl)benzamide]",,,0.1 to 1,1 to 5,
"Cc1ccc(N2C[C@@H]3C[C@H]2CN3c2ccc(C(=O)NO)cc2)cc1 [N-hydroxy-4-((1S,4S)-5-p-tolyl-2,5-diazabicyclo[2.2.1]heptan-2-yl)benzamide]",,,0.1 to 1,1 to 5,
"O=C(NO)c1ccc(CN2C(=O)c3ccccc3CCc3ccccc32)cc1 [N-hydroxy-4-((6-oxo-11,12-dihydrodibenzo[b,f]azocin-5(6H)-yl)methyl)benzamide]",0.1 to 1,1 to 5,,,
O=C(NO)c1ccc(Cn2c(=O)c3ccccc3c3ccccc32)cc1 [N-hydroxy-4-((6-oxophenanthridin-5(6H)-yl)methyl)benzamide],< 0.05,< 1,,,
"O=C(NO)c1ccc(CN2C(=O)c3ccccc3Oc3ccccc32)cc1 [N-hydroxy-4-((11-oxodibenzo[b,f][1,4]oxazepin-10(11H)-yl)methyl)benzamide]",< 0.05,< 1,,,
"O=C(NO)c1cnc(N2C[C@@H]3C[C@H]2CN3c2cccc(C(F)(F)F)c2)cn1 [N-hydroxy-5-((1S,4S)-5-(3-(trifluoromethyl)phenyl)-2,5-diazabicyclo[2.2.1]heptan-2-yl)pyrazine-2-carboxamide]",,,0.1 to 1,5 to 15,
"Cc1ccc(N2CC3CC2CN3c2ccc(C(=O)NO)cn2)cc1 (stereo not shown) [N-hydroxy-6-(5-p-tolyl-2,5-diazabicyclo[2.2.1]heptan-2-yl)nicotinamide]",,,< 0.05,< 1,
"O=C(CCCCCN1C(=O)c2ccccc2Oc2ccccc21)NO [N-hydroxy-6-(11-oxodibenzo[b,f][1,4]oxazepin-10(11H)-yl)hexanamide]",< 0.05,< 1,,,
"O=C(NO)c1ccc(N2C[C@@H]3C[C@H]2CN3c2cccc(C(F)(F)F)c2)nn1 [N-hydroxy-6-((1S,4S)-5-(3-(trifluoromethyl)phenyl)-2,5-diazabicyclo[2.2.1]heptan-2-yl)pyridazine-3-carboxamide]",,,0.1 to 1,5 to 15,
O=C(CCCCCCn1c(=O)c2ccccc2c2ccccc21)NO [N-hydroxy-7-(6-oxophenanthridin-5(6H)-yl)heptanamide],< 0.05,< 1,,,
"O=C(CCCCCCN1C(=O)c2ccccc2Oc2ccccc21)NO [N-hydroxy-7-(11-oxodibenzo[b,f][1,4]oxazepin-10(11H)-yl)heptanamide]",< 0.05,< 1,,,
"O=C(CCCCCCN1C(=O)c2ccccc2Sc2ccccc21)NO [N-hydroxy-7-(11-oxodibenzo[b,f][1,4]thiazepin-10(11H)-yl)heptanamide]",< 0.05,< 1,,,
O=C(CCCCCCOc1nc2ccccc2c2ccccc12)NO [N-hydroxy-7-(phenanthridin-6-yloxy)heptanamide],< 0.05,5 to 15,,,
"O=C(CCCCCCCN1C(=O)c2ccccc2Oc2ccccc21)NO [N-hydroxy-8-(11-oxodibenzo[b,f][1,4]oxazepin-10(11H)-yl)octanamide]",0.05 to 0.1,1 to 5,,,
"O=C(NO)c1cnc(N2CCCN(C(=O)OCc3ccccc3)CC2)nc1 [benzyl 4-(5-(hydroxycarbamoyl)pyrimidin-2-yl)-1,4-diazepane-1-carboxylate]",0.05 to 0.1,1 to 5,,,
